Test results taken from patent publication US20260028326A1, “COMPOUND BASED ON ISOINDOLINE-SUBSTITUTED GLUTARIMIDE BACKBONE AND USE THEREOF” (GLUETACS THERAPEUTICS (SHANGHAI) CO., LTD., priority 2022, published 2026).
pIC50: −log10 of the molar value.

How the values were obtained:
[1] = target: IKZF3 protein (Homo sapiens (Human), UniProt Q96SW2+Q9UKT9); test: Western-blot assay of substrate protein degradation in hPBMC, IKZF3; assay type: cell-based; conditions: for residual substrate protein level, IKZF3: hPBMC cells, compound 500 nM, 24 hours, Western blot
Sequence of IKZF3 protein (Q9UKT9 whole entry): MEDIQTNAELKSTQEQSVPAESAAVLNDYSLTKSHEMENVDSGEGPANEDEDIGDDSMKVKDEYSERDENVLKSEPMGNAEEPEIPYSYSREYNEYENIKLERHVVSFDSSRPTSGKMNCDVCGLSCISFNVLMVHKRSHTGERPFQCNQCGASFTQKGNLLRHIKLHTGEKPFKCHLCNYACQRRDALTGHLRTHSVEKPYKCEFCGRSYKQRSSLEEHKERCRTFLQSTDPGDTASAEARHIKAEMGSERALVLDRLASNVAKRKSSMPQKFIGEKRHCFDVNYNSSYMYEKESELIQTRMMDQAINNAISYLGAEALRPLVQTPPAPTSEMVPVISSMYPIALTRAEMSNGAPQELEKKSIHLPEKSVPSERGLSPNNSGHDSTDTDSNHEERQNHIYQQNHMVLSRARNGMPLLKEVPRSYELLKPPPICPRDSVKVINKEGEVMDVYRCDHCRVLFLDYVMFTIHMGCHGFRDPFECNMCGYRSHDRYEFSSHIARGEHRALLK
Sequence of IKZF3 protein (Q96SW2 whole entry): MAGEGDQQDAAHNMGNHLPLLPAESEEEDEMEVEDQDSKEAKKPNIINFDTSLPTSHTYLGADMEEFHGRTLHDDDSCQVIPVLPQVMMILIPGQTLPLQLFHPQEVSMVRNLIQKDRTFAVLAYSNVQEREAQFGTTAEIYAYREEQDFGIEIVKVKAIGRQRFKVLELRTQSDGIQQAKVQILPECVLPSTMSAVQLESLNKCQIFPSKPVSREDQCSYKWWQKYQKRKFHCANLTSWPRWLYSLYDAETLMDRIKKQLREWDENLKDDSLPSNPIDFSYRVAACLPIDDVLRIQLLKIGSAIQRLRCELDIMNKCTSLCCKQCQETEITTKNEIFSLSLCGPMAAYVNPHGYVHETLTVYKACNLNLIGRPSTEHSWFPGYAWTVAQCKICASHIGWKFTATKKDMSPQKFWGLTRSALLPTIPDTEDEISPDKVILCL
Sequence of IKZF3 protein (Q16531 whole entry partner): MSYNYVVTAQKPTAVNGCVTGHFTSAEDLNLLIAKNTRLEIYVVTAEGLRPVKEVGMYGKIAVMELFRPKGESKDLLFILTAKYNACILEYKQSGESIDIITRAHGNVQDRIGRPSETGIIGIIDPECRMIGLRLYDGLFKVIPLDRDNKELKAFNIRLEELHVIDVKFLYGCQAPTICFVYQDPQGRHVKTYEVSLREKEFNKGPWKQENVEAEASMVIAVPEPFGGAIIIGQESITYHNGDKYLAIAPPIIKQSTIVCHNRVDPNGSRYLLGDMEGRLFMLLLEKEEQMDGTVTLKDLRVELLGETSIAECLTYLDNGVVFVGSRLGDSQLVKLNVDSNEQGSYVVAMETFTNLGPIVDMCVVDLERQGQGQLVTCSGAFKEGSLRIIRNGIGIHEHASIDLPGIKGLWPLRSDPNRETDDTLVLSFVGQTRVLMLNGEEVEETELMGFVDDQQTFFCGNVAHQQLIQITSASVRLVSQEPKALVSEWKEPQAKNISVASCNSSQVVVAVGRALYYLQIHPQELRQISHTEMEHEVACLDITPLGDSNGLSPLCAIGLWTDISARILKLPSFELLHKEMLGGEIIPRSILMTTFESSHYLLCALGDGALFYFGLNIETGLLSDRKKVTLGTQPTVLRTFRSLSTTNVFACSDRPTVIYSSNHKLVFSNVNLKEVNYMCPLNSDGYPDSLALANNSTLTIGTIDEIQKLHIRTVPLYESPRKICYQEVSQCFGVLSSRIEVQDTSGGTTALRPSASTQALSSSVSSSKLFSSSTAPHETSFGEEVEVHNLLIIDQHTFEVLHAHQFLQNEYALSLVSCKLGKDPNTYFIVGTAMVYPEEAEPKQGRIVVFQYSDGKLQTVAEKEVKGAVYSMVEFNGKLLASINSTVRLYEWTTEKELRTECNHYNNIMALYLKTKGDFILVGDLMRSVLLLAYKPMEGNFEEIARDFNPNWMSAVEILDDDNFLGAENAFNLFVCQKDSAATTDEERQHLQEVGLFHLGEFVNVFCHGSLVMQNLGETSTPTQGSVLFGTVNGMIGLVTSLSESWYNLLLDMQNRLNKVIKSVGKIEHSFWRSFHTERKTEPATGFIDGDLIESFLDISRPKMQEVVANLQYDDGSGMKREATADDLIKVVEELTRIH

[2] = target: GSPT1 protein (Homo sapiens (Human), UniProt P15170+Q96SW2); test: Western-blot assay of substrate protein degradation in hPBMC, GSPT1; assay type: cell-based; conditions: for residual substrate protein level, GSPT1: hPBMC cells, compound 500 nM, 24 hours, Western blot
Sequence of GSPT1 protein (P15170 whole entry): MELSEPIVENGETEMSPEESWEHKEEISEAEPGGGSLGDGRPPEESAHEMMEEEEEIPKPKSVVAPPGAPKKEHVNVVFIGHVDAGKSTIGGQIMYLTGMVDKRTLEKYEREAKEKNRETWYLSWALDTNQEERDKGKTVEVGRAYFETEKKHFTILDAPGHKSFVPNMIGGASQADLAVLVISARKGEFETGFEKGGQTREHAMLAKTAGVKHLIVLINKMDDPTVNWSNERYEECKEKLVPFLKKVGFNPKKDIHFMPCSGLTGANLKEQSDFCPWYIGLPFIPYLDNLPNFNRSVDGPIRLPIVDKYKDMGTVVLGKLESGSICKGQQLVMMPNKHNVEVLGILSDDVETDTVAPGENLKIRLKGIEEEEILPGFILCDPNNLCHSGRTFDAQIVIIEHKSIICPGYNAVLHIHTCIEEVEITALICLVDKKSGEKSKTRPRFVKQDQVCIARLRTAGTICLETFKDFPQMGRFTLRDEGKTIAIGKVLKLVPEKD
Sequence of GSPT1 protein (Q96SW2 whole entry): as the sequence (Q96SW2 whole entry) above
Sequence of GSPT1 protein (Q16531 whole entry partner): as the sequence (Q16531 whole entry partner) above

[3] = target: IKZF1 protein (Homo sapiens (Human), UniProt Q13422+Q96SW2); test: Western-blot assay of substrate protein degradation in hPBMC, IKZF1; assay type: cell-based; conditions: for residual substrate protein level, IKZF1: hPBMC cells, compound 500 nM, 24 hours, Western blot
Sequence of IKZF1 protein (Q13422 whole entry): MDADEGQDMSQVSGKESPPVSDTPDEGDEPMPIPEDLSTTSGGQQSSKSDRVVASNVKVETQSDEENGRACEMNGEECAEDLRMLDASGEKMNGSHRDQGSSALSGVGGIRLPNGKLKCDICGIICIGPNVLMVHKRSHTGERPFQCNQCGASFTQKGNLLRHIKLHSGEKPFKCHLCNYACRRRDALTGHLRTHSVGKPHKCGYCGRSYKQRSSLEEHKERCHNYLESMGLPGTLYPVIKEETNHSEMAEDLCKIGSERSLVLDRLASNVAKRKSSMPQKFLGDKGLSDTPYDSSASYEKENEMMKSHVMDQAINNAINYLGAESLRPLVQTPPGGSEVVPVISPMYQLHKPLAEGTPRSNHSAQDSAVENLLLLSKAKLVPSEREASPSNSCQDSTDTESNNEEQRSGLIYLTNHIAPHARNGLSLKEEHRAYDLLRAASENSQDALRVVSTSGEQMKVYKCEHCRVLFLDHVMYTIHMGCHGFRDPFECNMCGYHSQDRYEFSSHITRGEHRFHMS
Sequence of IKZF1 protein (Q96SW2 whole entry): as the sequence (Q96SW2 whole entry) above
Sequence of IKZF1 protein (Q16531 whole entry partner): as the sequence (Q16531 whole entry partner) above

[4] = test system: Mino cells; test: Tumor cell proliferation IC50 (CCK-8), Mino; conditions: Homo sapiens, 72 h, read-out: IC50 for inhibiting the proliferation of tumor cells, Mino;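 also: cell viability assessed with CCK-8 reagent after compound exposure, IC50 derived from plotted growth inhibition curves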
[5] = target: human Cereblon WT GST-tagged protein (Homo sapiens (Human), UniProt Q96SW2); test: CRBN-binding affinity, HTRF (CEREBLON BINDING kit)
Sequence of human Cereblon WT GST-tagged protein (Q96SW2 whole entry): as the sequence (Q96SW2 whole entry) above
Procedure, shortened: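 GST-tagged human WT Cereblon incubated with compound, then Thalidomide-Re tracer and anti-GST Eu antibody added. Displacement read by HTRF, reported as CRBN binding inhibition rate against blank control wells without protein.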

[6] = hPBMC, 24 h, serially diluted 0.03-1000 nM

| SMILES | residual substrate protein level, IKZF3 [1] | residual substrate protein level, GSPT1 [2] | residual substrate protein level, IKZF1 [3] | pIC50 [4] | concentration at which significant degradation effects on IKZF3 protein are exhibited (FIG. 1) [1, 6] | concentration at which significant degradation effects on GSPT1 protein are exhibited (FIG. 1) [2, 6] | pIC50 [5] | concentration at which significant degradation effects on IKZF1 protein are exhibited (FIG. 1) [3, 6] |
| --- | --- | --- | --- | --- | --- | --- | --- | --- |
| O=C1CCC(N2C(=O)c3ccc(CN4CCN(Cc5cnc(-c6ccccc6)cn5)CC4)cc3C2=O)C(=O)N1 (stereo not drawn) [GT-05545, 2-(2,6-dioxopiperidin-3-yl)-5-((4-((5-phenylpyrazin-2-yl)methyl)piperazin-1-yl)methyl)isoindoline-1,3-dione] | A (A represents a residual substrate protein level of <50%) | B (B represents a residual substrate protein level of >50%) | B (B represents a residual substrate protein level of >50%) | 6.00 to 6.30 |  |  |  |  |
| O=C1CCC(N2Cc3cc(CN4CCN(Cc5cccc(-c6ccc(Cl)cn6)c5)CC4)ccc3C2=O)C(=O)N1 (stereo not drawn) [GT-05596, 3-(5-((4-(3-(5-chloropyridin-2-yl)benzyl)piperazin-1-yl)methyl)-1-oxoisoindolin-2-yl)piperidine-2,6-dione] | A (A represents a residual substrate protein level of <50%) | B (B represents a residual substrate protein level of >50%) | A (A represents a residual substrate protein level of <50%) | 7.30 to 8.00 | < 3 nM | < 3 nM | 5.87 | < 3 nM |
| O=C1CCC(N2Cc3cc(CN4CCN(Cc5cccc(-c6cccs6)c5)CC4)ccc3C2=O)C(=O)N1 (stereo not drawn) [GT-05597, 3-(1-oxo-5-((4-(3-(thiophen-2-yl)benzyl)piperazin-1-yl)methyl)isoindolin-2-yl)piperidine-2,6-dione] |  |  |  | 6.30 to 7.00 |  |  | 5.85 |  |
| O=C1CCC(N2Cc3c(ccc(CN4C5CC4CN(Cc4ccccc4-c4ccc(Cl)cc4)C5)c3F)C2=O)C(=O)N1 (stereo not drawn) [GT-05608, 3-(5-((3-((4′-chloro-[1,1′-biphenyl]-2-yl)methyl)-3,6-diazabicyclo[3.1.1]heptan-6-yl)methyl)-4-fluoro-1-oxoisoindolin-2-yl)piperidine-2,6-dione] | A (A represents a residual substrate protein level of <50%) | A (A represents a residual substrate protein level of <50%) | B (B represents a residual substrate protein level of >50%) | 6.00 to 6.30 |  |  | 6.10 |  |
| O=C1CCC(N2Cc3cc(CN4CCN(Cc5ccc(-c6cccs6)o5)CC4)ccc3C2=O)C(=O)N1 (stereo not drawn) [GT-05627, 3-(1-oxo-5-((4-((5-(thiophen-2-yl)furan-2-yl)methyl)piperazin-1-yl)methyl)isoindolin-2-yl)piperidine-2,6-dione] |  |  |  | 6.30 to 7.00 |  |  | 6.59 |  |
| O=C1CCC(N2Cc3cc(CN4CCN(Cc5cccc(-c6ccc(Cl)cc6)c5)CC4)ccc3C2=O)C(=O)N1 (stereo not drawn) [GT-05629, 3-(5-((4-((4′-chloro-[1,1′-biphenyl]-3-yl)methyl)piperazin-1-yl)methyl)-1-oxoisoindolin-2-yl)piperidine-2,6-dione] |  |  |  | 6.30 to 7.00 |  |  | 5.89 |  |
| O=C1CCC(N2C(=O)c3ccc(CN4CCN(Cc5ccc(-c6ccncc6)nc5)CC4)cc3C2=O)C(=O)N1 (stereo not drawn) [GT-05634, 5-((4-([2,4′-bipyridin]-5-ylmethyl)piperazin-1-yl)methyl)-2-(2,6-dioxopiperidin-3-yl)isoindoline-1,3-dione] | A (A represents a residual substrate protein level of <50%) | B (B represents a residual substrate protein level of >50%) | A (A represents a residual substrate protein level of <50%) | 6.00 to 6.30 |  |  |  |  |
| CC1(C)CCC(C(=O)N2CCCN(Cc3ccc4c(c3)CN(C3CCC(=O)NC3=O)C4=O)CC2)=C(c2ccc(Cl)cc2)C1 (stereo not drawn) [GT-05680, 3-(5-((4-(4′-chloro-5,5-dimethyl-3,4,5,6-tetrahydro-[1,1′-biphenyl]-2-carbonyl)-1,4-diazepan-1-yl)methyl)-1-oxoisoindolin-2-yl)piperidine-2,6-dione] | A (A represents a residual substrate protein level of <50%) | B (B represents a residual substrate protein level of >50%) | B (B represents a residual substrate protein level of >50%) |  |  |  | 6.01 |  |
| CC1(C)CCC(CN2CC3(C2)CN(Cc2ccc4c(c2)CN(C2CCC(=O)NC2=O)C4=O)C3)=C(c2ccc(Cl)cc2)C1 (stereo not drawn) [GT-05685, 3-(5-((6-((4′-chloro-5,5-dimethyl-3,4,5,6-tetrahydro-[1,1′-biphenyl]-2-yl)methyl)-2,6-diazaspiro[3.3]heptan-2-yl)methyl)-1-oxoisoindolin-2-yl)piperidine-2,6-dione] |  |  |  | 6.30 to 7.00 |  |  | 5.94 |  |
| O=C1CCC(N2Cc3cc(CN4CCN(Cc5cccc(-c6ccco6)c5)CC4)ccc3C2=O)C(=O)N1 (stereo not drawn) [GT-05692, 3-(5-((4-(3-(furan-2-yl)benzyl)piperazin-1-yl)methyl)-1-oxoisoindolin-2-yl)piperidine-2,6-dione] |  |  |  | 6.30 to 7.00 |  |  | 6.33 |  |
| O=C1CCC(N2Cc3cc(CN4CCN(Cc5ccc(-c6ccco6)o5)CC4)ccc3C2=O)C(=O)N1 (stereo not drawn) [GT-05695, 3-(5-((4-([2,2′-bifuran]-5-ylmethyl)piperazin-1-yl)methyl)-1-oxoisoindolin-2-yl)piperidine-2,6-dione] | A (A represents a residual substrate protein level of <50%) | B (B represents a residual substrate protein level of >50%) | A (A represents a residual substrate protein level of <50%) | 6.30 to 7.00 |  |  | 6.60 |  |
| O=C1CCC(N2Cc3cc(CN4C5CCC4CN(Cc4ccccc4-c4ccc(Cl)cc4)C5)ccc3C2=O)C(=O)N1 (stereo not drawn) [GT-05710, 3-(5-((3-((4′-chloro-[1,1′-biphenyl]-2-yl)methyl)-3,8-diazabicyclo[3.2.1]octan-8-yl)methyl)-1-oxoisoindolin-2-yl)piperidine-2,6-dione] | A (A represents a residual substrate protein level of <50%) | A (A represents a residual substrate protein level of <50%) | B (B represents a residual substrate protein level of >50%) |  |  |  | 5.96 |  |
| O=C1CCC(N2Cc3cc(CN4CCN(Cc5cccc(-c6ccc[nH]6)c5)CC4)ccc3C2=O)C(=O)N1 (stereo not drawn) [GT-05733, 3-(5-((4-(3-(1H-pyrrol-2-yl)benzyl)piperazin-1-yl)methyl)-1-oxoisoindolin-2-yl)piperidine-2,6-dione] | A (A represents a residual substrate protein level of <50%) | A (A represents a residual substrate protein level of <50%) | B (B represents a residual substrate protein level of >50%) |  |  |  | 6.68 |  |
| CC1(C)CCC(CN2CCN(Cc3ccc4c(c3)CN(C3CCC(=O)NC3=O)C4=O)C(C(F)(F)F)C2)=C(c2ccc(Cl)cc2)C1 (stereo not drawn) [GT-05796, 3-(5-((4-((4′-chloro-5,5-dimethyl-3,4,5,6-tetrahydro-[1,1′-biphenyl]-2-yl)methyl)-2-(trifluoromethyl)piperazin-1-yl)methyl)-1-oxoisoindolin-2-yl)piperidine-2,6-dione] | B (B represents a residual substrate protein level of >50%) | A (A represents a residual substrate protein level of <50%) | B (B represents a residual substrate protein level of >50%) |  |  |  | 6.70 |  |
| CC1(C)CCC(C(=O)N2CCN(Cc3ccc4c(c3)CN(C3CCC(=O)NC3=O)C4=O)C(C(F)(F)F)C2)=C(c2ccc(Cl)cc2)C1 (stereo not drawn) [GT-05845, 3-(5-((4-(4′-chloro-5,5-dimethyl-3,4,5,6-tetrahydro-[1,1′-biphenyl]-2-carbonyl)-2-(trifluoromethyl)piperazin-1-yl)methyl)-1-oxoisoindolin-2-yl)piperidine-2,6-dione] | A (A represents a residual substrate protein level of <50%) | B (B represents a residual substrate protein level of >50%) | B (B represents a residual substrate protein level of >50%) |  |  |  | 6.12 |  |
| CC1(C)CCC(CN2CCN(Cc3ccc4c(c3)CN(C3CCC(=O)NC3=O)C4=O)C(C(F)(F)F)C2)=C(c2ccc(F)cc2)C1 (stereo not drawn) [GT-05846, 3-(5-((4-((4′-fluoro-5,5-dimethyl-3,4,5,6-tetrahydro-[1,1′-biphenyl]-2-yl)methyl)-2-(trifluoromethyl)piperazin-1-yl)methyl)-1-oxoisoindolin-2-yl)piperidine-2,6-dione] | B (B represents a residual substrate protein level of >50%) | A (A represents a residual substrate protein level of <50%) | B (B represents a residual substrate protein level of >50%) |  |  |  | 6.03 |  |
